The text below walks through data of US10988477B2 (Merck Patent GmbH, priority 2018, dated 2021).

In one test the target is GCN2 kinase (Homo sapiens, UniProt Q9P2K8). Description: GCN2 enzyme inhibition assay (Transcreener ADP2 fluorescence polarization). It counts as biochemical. The note with it: 280 μM ATP. The method, boiled down:
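FP detection of ADP (antibody plus Alexa633 tracer) after a 1 h, 25 °C kinase reaction. Enzyme 4 nM, ATP 280 μM, (RS)7 peptide 200 μM, Tris pH 7.5 buffer with MgCl2 and DTT. Percent inhibition fitted by non-linear tight-binding algorithm for IC50 and Ki(app).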

Test [1] addresses intracellular GCN2 (phosphorylation of the GCN2 substrate eIF2α) (Homo sapiens, UniProt Q9P2K8). The test is described as follows: GCN2 cellular inhibition assay (AlphaScreen SureFire P-eIF2α Ser51, borrelidin-treated U2OS cells). In kind it is cell-based. In outline: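 U2OS cells, adhered overnight, received compounds in 4-fold serial dilutions from 40 μM final, then 10 μM borrelidin for 1 h at 37 °C. Lysates were read by AlphaScreen for phospho-eIF2α Ser51; percent inhibition was set against borrelidin-only wells.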

[2] abbreviates: compounds of Formula V, 4 nM GCN2 kinase.
Setting [3] is: compounds of Formula V, U2OS cells, 10 μM borrelidin, 1 h, read-out: GCN2 Biomarker (IC50).
Where [4] appears, read: compounds of Formula II, 4 nM GCN2 kinase.
[5] abbreviates: compounds of Formula II, biomarker assay, phosphorylated eIF2α Ser51 in borrelidin-treated U2OS cells.
Setting [6] is: Enzyme activity for compounds of Formula IV, Ki(app), 25° C.
Setting [7] is: compounds of Formula IV, biomarker assay, phosphorylated eIF2α Ser51 in borrelidin-treated U2OS cells.

Like-named read-outs stand apart in the source and are kept apart here. Some results are limits rather than exact numbers.

GCN2 kinase, sequence (Q9P2K8 whole entry): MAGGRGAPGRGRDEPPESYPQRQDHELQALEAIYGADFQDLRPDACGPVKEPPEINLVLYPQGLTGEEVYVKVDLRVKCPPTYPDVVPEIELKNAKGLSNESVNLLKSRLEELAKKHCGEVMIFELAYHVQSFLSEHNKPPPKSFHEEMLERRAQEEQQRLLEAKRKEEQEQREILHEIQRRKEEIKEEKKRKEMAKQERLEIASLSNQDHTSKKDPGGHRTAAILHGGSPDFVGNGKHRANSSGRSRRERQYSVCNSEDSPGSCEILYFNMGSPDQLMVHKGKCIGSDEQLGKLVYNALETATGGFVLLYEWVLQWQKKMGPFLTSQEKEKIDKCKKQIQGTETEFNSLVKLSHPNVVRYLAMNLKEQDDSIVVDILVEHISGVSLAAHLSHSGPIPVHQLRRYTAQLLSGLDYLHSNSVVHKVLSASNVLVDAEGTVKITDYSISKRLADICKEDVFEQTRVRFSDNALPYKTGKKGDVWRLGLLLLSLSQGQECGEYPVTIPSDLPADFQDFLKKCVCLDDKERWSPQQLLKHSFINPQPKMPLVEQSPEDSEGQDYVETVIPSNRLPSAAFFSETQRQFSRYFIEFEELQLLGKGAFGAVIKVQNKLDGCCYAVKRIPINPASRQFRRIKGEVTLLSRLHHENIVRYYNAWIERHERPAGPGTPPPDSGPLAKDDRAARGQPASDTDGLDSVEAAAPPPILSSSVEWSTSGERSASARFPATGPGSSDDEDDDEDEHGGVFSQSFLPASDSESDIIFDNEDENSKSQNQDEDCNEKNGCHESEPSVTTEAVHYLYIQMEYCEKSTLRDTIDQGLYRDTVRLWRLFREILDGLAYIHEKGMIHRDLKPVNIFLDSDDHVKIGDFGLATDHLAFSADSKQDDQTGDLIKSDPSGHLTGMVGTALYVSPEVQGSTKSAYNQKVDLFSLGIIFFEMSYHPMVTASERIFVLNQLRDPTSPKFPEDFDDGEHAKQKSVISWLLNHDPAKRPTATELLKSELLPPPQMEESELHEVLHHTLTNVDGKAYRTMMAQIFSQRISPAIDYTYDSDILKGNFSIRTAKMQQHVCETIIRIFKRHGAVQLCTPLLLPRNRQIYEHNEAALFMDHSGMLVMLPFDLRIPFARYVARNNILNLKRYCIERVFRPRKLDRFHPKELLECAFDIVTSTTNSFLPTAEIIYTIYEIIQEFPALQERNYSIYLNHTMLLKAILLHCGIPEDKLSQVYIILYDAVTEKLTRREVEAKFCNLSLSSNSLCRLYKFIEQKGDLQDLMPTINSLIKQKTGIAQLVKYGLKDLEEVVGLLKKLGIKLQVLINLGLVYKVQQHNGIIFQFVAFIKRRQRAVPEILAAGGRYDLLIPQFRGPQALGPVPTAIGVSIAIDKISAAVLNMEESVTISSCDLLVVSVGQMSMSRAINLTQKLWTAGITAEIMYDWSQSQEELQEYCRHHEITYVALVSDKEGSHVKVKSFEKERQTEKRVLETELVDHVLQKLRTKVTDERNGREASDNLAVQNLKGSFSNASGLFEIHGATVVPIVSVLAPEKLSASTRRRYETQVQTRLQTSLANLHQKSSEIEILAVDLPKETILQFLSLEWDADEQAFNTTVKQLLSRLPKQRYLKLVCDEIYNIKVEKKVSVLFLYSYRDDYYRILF
intracellular GCN2 (phosphorylation of the GCN2 substrate eIF2α), sequence (Q9P2K8 whole entry): as above

With `NC(=O)[C@H]1CCCN(c2ccnc(-c3cnc4sc(C(F)(F)F)cn34)n2)C1` [Compound V-10, (3S)-1-[2-[2-(Trifluoromethyl)imidazo[2,1-b]thiazol-5-yl]pyrimidin-4-yl]piperidine-3-carboxamide], the Ki on GCN2 kinase (setting [2]) was under 10 nM. Moreover, the IC50 in test [1] (setting [3]) was under 0.5 µM.

For `CC1CN(c2cc(-c3cnc4ccc(C(F)F)nn34)ccn2)CC(CNS(C)(=O)=O)C1(F)F` (stereo not shown) [II-58, N-((1-(4-(6-(Difluoromethyl)imidazo[1,2-b]pyridazin-3-yl)pyridin-2-yl)-4,4-difluoro-5-methylpiperidin-3-yl)methyl)methanesulfonamide], on GCN2 kinase (setting [4]), the Ki is under 10 nM. For the same compound, in test [1] (setting [5]), the IC50 was under 0.5 µM.

`CC1C(CNS(C)(=O)=O)N(C2CC2)CCN1c1cc(-c2cnc3ccc(C(F)F)nn23)ncn1` (single isomer, unassigned) [II-479, N-((1-Cyclopropyl-4-(6-(6-(difluoromethyl)imidazo[1,2-b]pyridazin-3-yl)pyrimidin-4-yl)-3-methylpiperazin-2-yl)methyl)methanesulfonamide]: the Ki on GCN2 kinase (setting [4]) is under 10 nM. Also, the half-maximal inhibitory concentration (IC50) in test [1] (setting [5]) is under 0.5 µM.

`CC(=O)N1CCN(c2cc(-c3cnc4ccc(-c5cccnc5)nn34)ccn2)CC1` [II-737, 1-(4-(4-(6-(pyridin-3-yl)imidazo[1,2-b]pyridazin-3-yl)pyridin-2-yl)piperazin-1-yl)ethan-1-one] had a Ki at GCN2 kinase (setting [4]) of over 1000 nM. The compound also had an IC50 in test [1] (setting [5]) of over 5 µM.

The compound `CC1C(CNS(C)(=O)=O)CN(c2cc(-c3cnc4ccc(C(F)F)nn34)ncn2)CC1(F)F` (stereo not shown) [II-382, N-((1-(6-(6-(Difluoromethyl)imidazo[1,2-b]pyridazin-3-yl)pyrimidin-4-yl)-5,5-difluoro-4-methylpiperidin-3-yl)methyl)methanesulfonamide] yielded a Ki on GCN2 kinase (setting [4]) of 10 to 1000 nM. In addition, the IC50 in test [1] (setting [5]) fell in the range of 0.5 to 5 µM.

On to `CC1C[S+]([O-])CCN1c1cc(-c2cnc3ccc(C(F)F)nn23)ncn1` (single isomer, unassigned) [II-356, 4-(6-(6-(Difluoromethyl)imidazo[1,2-b]pyridazin-3-yl)pyrimidin-4-yl)-3-methylthiomorpholine 1-oxide], for which the Ki at GCN2 kinase (setting [4]) was 10 to 1000 nM. In test [1] (setting [5]), this compound showed an IC50 of over 5 µM.

With `CS(=O)(=O)NCC1CCCN(c2cc(-c3cnc4ccc(C(F)F)nn34)ncn2)C1` (stereo not shown) [II-59, N-((1-(6-(6-(Difluoromethyl)imidazo[1,2-b]pyridazin-3-yl)pyrimidin-4-yl)piperidin-3-yl)methyl)methanesulfonamide], the Ki at GCN2 kinase (setting [4]) is under 10 nM. Also, the concentration for half-maximal inhibition (IC50) in test [1] (setting [5]) is under 0.5 µM.

In the case of `C[C@H]1[C@@H](C(=O)O)CCCN1c1ccnc(-c2cnc3cnc(C(F)F)cn23)n1` (racemic) [IV-110, Cis-1-(2-(6-(Difluoromethyl)imidazo[1,2-a]pyrazin-3-yl)pyrimidin-4-yl)-2-methylpiperidine-3-carboxylic acid], the Ki on GCN2 kinase (setting [6]) lay in the range of 100 to 1000 nM. For the same compound, the IC50 in test [1] (setting [7]) was over 5 µM.

In the case of `CS(=O)(=O)N1CCOC2(CN(c3cc(-c4cnc5ccc(C(F)F)nn45)ncn3)C2)C1` [II-280, 2-(6-(6-(Difluoromethyl)imidazo[1,2-b]pyridazin-3-yl)pyrimidin-4-yl)-8-(methylsulfonyl)-5-oxa-2,8-diazaspiro[3.5]nonane], the Ki at GCN2 kinase (setting [4]) fell in the range of 10 to 1000 nM. Also, the half-maximal inhibitory concentration (IC50) in test [1] (setting [5]) is over 5 µM.

Regarding `CC1CN(c2cc(-c3cnc4ccc(C(F)F)nn34)ncn2)CC1CNS(C)(=O)=O` (stereo not shown) [II-238, N-((1-(6-(6-(Difluoromethyl)imidazo[1,2-b]pyridazin-3-yl)pyrimidin-4-yl)-4-methylpyrrolidin-3-yl)methyl)methanesulfonamide], the Ki on GCN2 kinase (setting [4]) was 10 to 1000 nM. This compound also returned a 50% inhibitory concentration (IC50) in test [1] (setting [5]) of 0.5 to 5 µM.

At GCN2 kinase (setting [4]), `CS(=O)(=O)NCC1CCCN(c2cc(-c3cnc4ccc(C(F)F)nn34)cc(OC3CNC3)n2)C1` (stereo not shown) [II-84, N-((1-(6-(Azetidin-3-yloxy)-4-(6-(difluoromethyl)imidazo[1,2-b]pyridazin-3-yl)pyridin-2-yl)piperidin-3-yl)methyl)methanesulfonamide] showed a Ki of under 10 nM. The compound also returned an IC50 in test [1] (setting [5]) of 0.5 to 5 µM.

Compound `CC1CN(c2cc(-c3cnc4ccc(C(F)F)nn34)ncn2)CC(CNS(C)(=O)=O)O1` (stereo not shown) [II-31, N-((4-(6-(6-(Difluoromethyl)imidazo[1,2-b]pyridazin-3-yl)pyrimidin-4-yl)-6-methylmorpholin-2-yl)methyl)methanesulfonamide] gave a Ki on GCN2 kinase (setting [4]) of under 10 nM. In test [1] (setting [5]), this compound came in with an IC50 of under 0.5 µM.

In turn, `CC1C(CNS(C)(=O)=O)CCCN1c1cc(-c2cnc3ccc(C(F)F)nn23)ncn1` (single isomer, unassigned) [II-264, N-((1-(6-(6-(Difluoromethyl)imidazo[1,2-b]pyridazin-3-yl)pyrimidin-4-yl)-2-methylpiperidin-3-yl)methyl)methanesulfonamide] gave a Ki at GCN2 kinase (setting [4]) of 10 to 1000 nM. The same compound yielded a half-inhibitory concentration (IC50) in test [1] (setting [5]) of over 5 µM.

In turn, `O=C1CN(c2cc(-c3cnc4ccc(C(F)F)nn34)ccn2)CC2(CC2)N1` [II-160, 7-(4-(6-(Difluoromethyl)imidazo[1,2-b]pyridazin-3-yl)pyridin-2-yl)-4,7-diazaspiro[2.5]octan-5-one] registered a Ki on GCN2 kinase (setting [4]) of 10 to 1000 nM. In test [1] (setting [5]), the IC50 lay in the range of 0.5 to 5 µM.

With `CC1CN(c2ccnc(-c3cnc4cnc(C(F)(F)F)cn34)n2)CC(c2cn[nH]c2Cl)N1` (single isomer, unassigned) [IV-652, 3-[4-[3-(5-Chloro-1H-pyrazol-4-yl)-5-methyl-piperazin-1-yl]pyrimidin-2-yl]-6-(trifluoromethyl)imidazo[1,2-a]pyrazine], the Ki at GCN2 kinase (setting [6]) lay within 10 to 100 nM. The compound further registered a concentration for half-maximal inhibition (IC50) in test [1] (setting [7]) of 0.5 to 5 µM.

For the compound `CS(=O)(=O)N1CCCC(c2cc(-c3cnc4ccc(C(F)F)nn34)ncn2)CC1` (stereo not shown) [II-14, 6-(Difluoromethyl)-3-(6-(1-(methylsulfonyl)azepan-4-yl)pyrimidin-4-yl)imidazo[1,2-b]pyridazine], on GCN2 kinase (setting [4]), the Ki was in the range of 10 to 1000 nM. Moreover, in test [1] (setting [5]), the IC50 is over 5 µM.

In turn, `CN1CCN(Cc2cccc(-c3ccnc(-c4cnc5cnc(C(F)F)cn45)n3)c2)CC1` [IV-166, 6-(Difluoromethyl)-3-(4-(3-((4-methylpiperazin-1-yl)methyl)phenyl)pyrimidin-2-yl)imidazo[1,2-a]pyrazine] showed a Ki at GCN2 kinase (setting [6]) of 100 to 1000 nM. This compound also returned an IC50 in test [1] (setting [7]) of over 5 µM.

`C[C@H]1[C@@H](c2cn[nH]c2)NCCN1c1ccnc(-c2cnc3cnc(C4CC4)cn23)n1` (racemic) [IV-411, Cis-6-Cyclopropyl-3-(4-(2-methyl-3-(1H-pyrazol-4-yl)piperazin-1-yl)pyrimidin-2-yl)imidazo[1,2-a]pyrazine] gave a Ki on GCN2 kinase (setting [6]) of 10 to 100 nM. Further, the concentration for half-maximal inhibition (IC50) in test [1] (setting [7]) was in the range of 0.5 to 5 µM.

`C[C@H]1CN(c2ccnc(-c3cnc4sc(C(F)F)cn34)n2)C[C@@H](CNS(C)(=O)=O)C1(F)F` (stereo in doubt) [Compound V-1, N-((-1-(2-(2-(Difluoromethyl)imidazo[2,1-b]thiazol-5-yl)pyrimidin-4-yl)-4,4-difluoro-5-methylpiperidin-3-yl)methyl)methanesulfonamide] registered a Ki at GCN2 kinase (setting [2]) of under 10 nM. In test [1] (setting [3]), the half-maximal inhibitory concentration (IC50) fell in the range of 0.5 to 5 µM.

`CC(=O)N1CCN(c2ccnc(-c3cnc4cnc(C5CC5)cn34)n2)CC1` [IV-33, 1-(4-(2-(6-Cyclopropylimidazo[1,2-a]pyrazin-3-yl)pyrimidin-4-yl)piperazin-1-yl)ethan-1-one] registered a Ki on GCN2 kinase (setting [6]) of 100 to 1000 nM. Further, in test [1] (setting [7]), the IC50 is over 5 µM.

As to `CS(=O)(=O)NCC1CCCN(c2cc(-c3cnc4ccc(C(F)F)nn34)cc(N3CC4(COC4)C3)n2)C1` (stereo not shown) [II-83, N-((1-(4-(6-(Difluoromethyl)imidazo[1,2-b]pyridazin-3-yl)-6-(2-oxa-6-azaspiro[3.3]heptan-6-yl)pyridin-2-yl)piperidin-3-yl)methyl)methanesulfonamide], the Ki on GCN2 kinase (setting [4]) was under 10 nM. In test [1] (setting [5]), this compound came in with an IC50 of 0.5 to 5 µM.

For the compound `Brc1cn2c(-c3nccc(N4CCCC(c5c[nH]cn5)C4)n3)cnc2cn1` (stereo not shown) [IV-340, 3-(4-(3-(1H-Imidazol-4-yl)piperidin-1-yl)pyrimidin-2-yl)-6-bromoimidazo[1,2-a]pyrazine], on GCN2 kinase (setting [6]), the Ki is under 10 nM. Besides, the IC50 in test [1] (setting [7]) lay in the range of 0.5 to 5 µM.

In turn, `CNc1cc(-c2cnc3ccc(C(F)F)nn23)cc(N2CCC(F)(F)C(CNS(C)(=O)=O)C2)n1` (stereo not shown) [II-71, N-((1-(4-(6-(Difluoromethyl)imidazo[1,2-b]pyridazin-3-yl)-6-(methylamino)pyridin-2-yl)-4,4-difluoropiperidin-3-yl)methyl)methanesulfonamide] registered a Ki at GCN2 kinase (setting [4]) of under 10 nM. Besides, the IC50 in test [1] (setting [5]) fell in the range of 0.5 to 5 µM.

Turning to `FC(F)(F)c1cn2c(-c3nccc(N4CCO[C@@H](c5cn[nH]c5)C4)n3)cnc2s1` (stereo in doubt) [Compound V-4, 2-(1H-pyrazol-4-yl)-4-(2-(2-(trifluoromethyl)imidazo[2,1-b]thiazol-5-yl)pyrimidin-4-yl)morpholine], the Ki at GCN2 kinase (setting [2]) lay within 10 to 100 nM. In addition, the IC50 in test [1] (setting [3]) lay within 0.5 to 5 µM.

In turn, `CC1CC(c2cn[nH]c2)C(C)N(c2ccnc(-c3cnc4cnc(C(F)(F)F)cn34)n2)C1` (single isomer, unassigned) [IV-311] yielded a Ki at GCN2 kinase (setting [6]) of under 10 nM. Further, the half-maximal inhibitory concentration (IC50) in test [1] (setting [7]) is under 0.5 µM.

Consider `c1cn2c(-c3nccc(N4CCOC(c5cn[nH]c5)C4)n3)cnc2cn1` (stereo not shown) [IV-39, 4-(2-(Imidazo[1,2-a]pyrazin-3-yl)pyrimidin-4-yl)-2-(1H-pyrazol-4-yl)morpholine], for which the Ki on GCN2 kinase (setting [6]) was in the range of 100 to 1000 nM. Besides, the IC50 in test [1] (setting [7]) is over 5 µM.
